Test results from patent US12466856B2, “Echinocandin analogues and preparation method therefor” (SHANGHAI SENHUI MEDICINE CO., LTD., priority 2019, dated 2025).

Legend:
[1] = test system: Candida albicans ATCC 90029; experiment: MIC assay (CLSI M27-A3), Candida albicans ATCC 90029; assay type: cell-based; details: first batch; 24 h, 35° C.; ≥50% growth inhibition
Description: (§1) After a test compound was serially diluted, an MIC (minimum inhibitory concentration) assay was performed on the standard Candida strain and an MEC (minimum effective concentration) assay on the standard Aspergillus strain. The MIC assay was performed according to the guidelines of the Clinical and Laboratory Standards Institute (CLSI M27-A3) and the MEC assay according to the guidelines of the Clinical and Laboratory Standards Institute (CLSI M38-A2).
(§2) The frozen strain was passaged at least twice, and a single colony was picked and resuspended in normal saline or sterile water in a tube. The suspension was vortexed and adjusted to 0.5 McF (1×10^6 to 5×10^6 CFU/mL) using a spectrophotometer at wavelength 530 nm. The suspension was 50-fold diluted with normal saline and then 20-fold diluted with 1×RPMI 1640 broth (1×10^3 to 5×10^3 CFU/mL). 10 μL of the suspension was applied to an SDA plate for colony counting, with a range from about 10 to 50 single colonies.
(§3) At this time, the bacterium concentration in each well should be 0.5×10^3 to 2.5×10^3 CFU/mL.
(§4) For echinocandin drugs, Aspergillus was incubated at 28° C. for 21-26 h, and then the MEC results were read.
(§5) Yeast-type fungi: A disposable sealing film was applied to the 96-well plate, and the mixture was well mixed by shaking. Observation was performed through a plate reader with the naked eye. Comparisons were made to the growth control, and the minimum compound concentration corresponding to ≥50% growth inhibition was defined as MIC. Pictures were taken and saved using an automatic plate reader.

[2] = test system: Candida glabrata ATCC 15126; experiment: MIC assay (CLSI M27-A3), Candida glabrata ATCC 15126; assay type: cell-based; details: first batch; 24 h, 35° C.; ≥50% growth inhibition
Description: as §1, §2, §3, §4, §5

[3] = test system: Candida parapsilosis ATCC 22019; experiment: MIC assay (CLSI M27-A3), Candida parapsilosis ATCC 22019; assay type: cell-based; details: first batch; 24 h, 35° C.; quality control strain
Description: as §1, §2, §3, §4, §5

[4] = test system: Candida krusei ATCC 6258; experiment: MIC assay (CLSI M27-A3), Candida krusei ATCC 6258; assay type: cell-based; details: first batch; 24 h, 35° C.; quality control strain
Description: as §1, §2, §3, §4, §5

[5] = test system: Meyerozyma guilliermondii ATCC 6260; experiment: MIC assay (CLSI M27-A3), Meyerozyma guilliermondii ATCC 6260; assay type: cell-based; details: first batch; 24 h, 35° C.
Description: as §1, §2, §3, §4, §5

[6] = test system: Candida tropicalis ATCC 750; experiment: MIC assay (CLSI M27-A3), Candida tropicalis ATCC 750; assay type: cell-based; details: first batch; 24 h, 35° C.
Description: as §1, §2, §3, §4, §5

[7] = test system: Aspergillus flavus ATCC 28539; experiment: MEC assay (CLSI M38-A2), Aspergillus flavus ATCC 28539; assay type: cell-based; details: first batch; 28° C., 21-26 h
Description: The MIC assay was performed according to the guidelines of the Clinical and Laboratory Standards Institute (CLSI M27-A3) and the MEC assay according to the guidelines of the Clinical and Laboratory Standards Institute (CLSI M38-A2).
Colonies on the plate were covered with about 1 mL of 0.85% normal saline or sterile water (polysorbate 20 was added at a final concentration of 0.1%-0.01%). […] The homogeneous upper layer of the suspension was transferred to a new sterile tube, which was then sealed and vortexed for 15 s (be careful as the suspension may produce an aerosol when the cover is removed). The concentration of the suspension was adjusted until an OD value of 0.09-0.13 was achieved using a spectrophotometer at 530 nm. […] 100 μL of sample was added to each well of the 96-well plate within 2 h after dilution (the final spore concentration in the susceptibility testing plate was at 0.4×10^4 to 5×10^4 CFU/mL).
Aspergillus: For echinocandin drugs, comparisons were made to the growth control under a plate reader, and the minimum drug concentration that could cause the hyphae to form small, round, compact hyphal particles was defined as MEC. For accurate determination of MEC values, the plate must not be vortexed before reading.

[8] = test system: Candida albicans ATCC 90028; experiment: MIC assay (CLSI M27-A3), Candida albicans ATCC 90028; assay type: cell-based; details: second batch
Description: as §1, §2
At this time, the bacterium concentration in each well should be 0.5×10^3 to 2.5×10^3 CFU/mL. […]
as §5

[9] = test system: Candida albicans ATCC 44858; experiment: MIC assay (CLSI M27-A3), Candida albicans ATCC 44858; assay type: cell-based; details: second batch
Description: as §1, §2, §3, §4, §5

[10] = test system: Candida glabrata ATCC 36583; experiment: MIC assay (CLSI M27-A3), Candida glabrata ATCC 36583; assay type: cell-based; details: second batch
Description: as §1, §2, §3, §4, §5

[11] = test system: Candida albicans (azole drug-resistant strain) R357; experiment: MIC assay (CLSI M27-A3), Candida albicans azole drug-resistant strain R357; assay type: cell-based; details: second batch
Description: as §1, §2, §3, §4, §5

[12] = test system: Candida albicans (azole drug-resistant strain) R358; experiment: MIC assay (CLSI M27-A3), Candida albicans azole drug-resistant strain R358; assay type: cell-based; details: second batch
Description: as §1, §2, §3, §4, §5

[13] = test system: Candida tropicalis (amphotericin-resistant strain) ATCC 200956; experiment: microbe, parasite or virus in culture; assay type: cell-based; details: second batch
Description: as §1, §2, §3, §4, §5

[14] = Plasma histamine assay after single intravenous injection in SD rats; assay type: in vivo; details: SD rats
Description: (§6) 12 SD rats were divided into 2 groups of 6 (half are male and half female). […] The body weights were measured once before administration. Administration was performed by single intravenous injection for 20 min per animal. PK measurement was performed once before administration and 5 min, 30 min, 1 h, 4 h, 8 h, 24 h, 48 h, 72 h and 96 h after administration. A histamine assay was performed once before administration and 30 min, 4 h, 8 h and 24 h after administration.

[15] = Pharmacokinetic study after single intravenous injection in SD rats; assay type: in vivo; details: 10 mg/kg single intravenous injection
Description: as §6

[16] = General state observation after single intravenous injection in SD rats; assay type: in vivo; details: 10 mg/kg single intravenous injection
Description: as §6

Substance: Rezafungin acetate
- MIC, Candida albicans ATCC 90029 [1]: 0.125 µg/mL
- MIC, Candida glabrata ATCC 15126 [2]: 0.125 µg/mL
- MIC, Candida parapsilosis ATCC 22019 [3]: 2 µg/mL
- MIC, Candida krusei ATCC 6258 [4]: 0.25 µg/mL
- MIC, Meyerozyma guilliermondii ATCC 6260 [5]: 2 µg/mL
- MIC, Candida tropicalis ATCC 750 [6]: 0.016 µg/mL
- MEC, Aspergillus flavus ATCC 28539 [7]: 0.031 µg/mL
- MIC, Candida albicans ATCC 90028 ([8]; 24 h, 35° C.): 0.25 µg/mL
- MIC, Candida albicans + 50% human serum ATCC 90028 ([8]; + 50% human serum): 0.25 µg/mL
- MIC, Candida albicans ATCC 44858 [9]: 0.25 µg/mL
- MIC, Candida glabrata ATCC 36583 [10]: 0.25 µg/mL
- MIC, Candida albicans (azole drug-resistant strain) R357 [11]: 0.25 µg/mL
- MIC, Candida albicans (azole drug-resistant strain) R358 [12]: 0.25 µg/mL
- MIC, Candida tropicalis (amphotericin-resistant strain) ATCC 200956 [13]: 0.25 µg/mL
- mean plasma histamine concentration relative to group 1 ([14]; 10 mg/kg i.v., 30 min after administration, p=0.046): 4.5 times
- time at which plasma histamine concentration peaked ([14]; 10 mg/kg single intravenous injection): 30 min
- mean histamine concentration in the plasma ([14]; 10 mg/kg single intravenous injection, 30 min after administration): 1333.0 ng/mL
- AUC0-96 ([15]; female SD rats): 205.8 µg·h/mL
- AUC0-inf ([15]; female SD rats): 227.2 µg·h/mL
- CL ([15]; female SD rats): 0.8 mL/min/kg
- Cmax ([15]; female SD rats): 8600 ng/mL
- MRTIV ([15]; female SD rats): 39.1 h
- T1/2 ([15]; female SD rats): 27.9 h
- VdSS ([15]; female SD rats): 1.8 L/kg
- AUC0-96 ([15]; male SD rats): 190.5 µg·h/mL
- AUC0-inf ([15]; male SD rats): 212.1 µg·h/mL
- CL ([15]; male SD rats): 0.8 mL/min/kg
- Cmax ([15]; male SD rats): 7800 ng/mL
- MRTIV ([15]; male SD rats): 38.4 h
- T1/2 ([15]; male SD rats): 28.0 h
- VdSS ([15]; male SD rats): 1.8 L/kg
- general state observation [16]: transient slight decrease in activity
